The values that follow come from patent US11241436B2, “Autophagy inducers for treatment of CNS conditions” (Northwestern University, priority 2017, dated 2022).

Molecules are shown by their SMILES.

By AC50 is commonly meant the concentration giving half of the maximal activity seen. Higher therefore signals weaker potency.

One test relates to LC3. Kind of test: Promega Autophagy Assay System (HiBiT-tagged LC3 reporter, autophagy flux). In kind it is cell-based. Conditions: LC3 reporter signal; decrease = increased autophagy. From the text: The Promega Augophagy Assay System uses LC3 to monitor the autophagy process. […] LgBiT is a […] recombinant protein derived from NanoLuc. When HiBiT associates with LgBiT, a strong luciferase activity is reconstituted. An increase in autophagy will accelerate the degradation of LC3 reporter which decreases the assay signal. In contrast, inhibition of autophagy causes the accumulation of LC3 which will increase the reporter levels and assay signal.
For orientation: HiBiT is a short tag that completes a luciferase, so light tracks the accessible tagged protein.

In the next test the test system is Aβ42. Kind of test: Dot blot assay of Aβ42 in brain of 5XFAD mice. The test is classed as in vivo, mouse. Conditions: 5XFAD Becn1 F121A mice, 2 mg/kg i.p. once per day for 7 days. On the procedure:
Total protein loading was labeled by Ponceau S. N=5. **, P<0.01, t test.
Total protein loading was labeled by Ponceau S. Triplicate experiments from 4-5 mice in each group were shown. Results represent mean±s.e.m. NS, not significant; *, P<0.05; **, P<0.01; ***, P<0.001, t test.
Total protein loading was labeled by Ponceau S. Triplicate experiments from 4 mice in each group were shown.
Dot blot assay. Snap frozen hemi-brain were homogenized in 800 μl phosphate-buffered saline (PBS; Sigma-Aldrich, D8537) with 1% Triton X-100 supplemented with halt proteinase inhibitor cocktail (ThermoFisher Scientific), and halt phosphatase inhibitor cocktail (ThermoFisher Scientific). Protein concentration was quantified using BCA Assay (Pierce). For Af342 dot blots, 10 mg/ml brain homogenates were extracted in guanidine buffer (5 M guanidine-HCl [GuHCl], 50 mM Tris HCl pH 8.0) overnight at room temperature. One μl of sample was spotted in triplicate on 0.2 μm nitrocellulose membrane, and dried for 1 h at 37° C. The membrane was stained with Ponceau S, and the dot blot signal on the membrane was detected by immunostaining with Aβ42 antibody (Invitrogen, 700254, 1:1000) and HRP-conjugated secondary antibody (Santa Cruz Biotechnology, sc2004, 1:2000). Aβ42 signals were normalized to the Ponceau S staining. To separate soluble and insoluble Aβ fractions, 10 mg/ml of the total homogenated brains were centrifuged at 14000 rpm, 4° C. for 30 min. The supernatant (soluble fraction) was used directly for dot blot assays. The pellet (insoluble fraction) was extracted in guanidine buffer overnight at room temperature, and used in dot blot analyses. […] One μl of each sample was spotted on nitrocellulose membrane for dot blot analysis.

For `N=c1c2c(-c3ccccc3)c(-c3ccccc3)n(CCc3ccccc3)c2ncn1C[C@@H]1CCCC[C@H]1O`, the AC50 with LC3 is 18.4 µM. The same measure, in the same setting: the value for `N=c1c2c(-c3ccccc3)cn(Cc3ccccc3)c2ncn1Cc1ccco1` was 16.4 µM; that for `COc1ccc(-c2c(-c3ccc(OC)cc3)n(Cc3ccccc3)c3ncn(CCCO)c(=N)c23)cc1` was 20.6 µM; that for `CN(C)CCCn1cnc2c(c(-c3ccccc3)c(-c3ccccc3)n2Cc2ccccc2)c1=N` was 29.1 µM.

Take `N=c1c2c(-c3ccccc3)c(-c3ccccc3)n(Cc3ccccc3)c2ncn1CC1COC1`: half-maximal activity in the test with LC3 (AC50) was put at 8.2 µM. The same measure, in the same setting: as for `N=c1c2c(-c3ccccc3)c(-c3ccccc3)n(Cc3ccccc3)c2ncn1CC1CCCO1` (centres unmarked), the figure is 14.6 µM. On the same count and under the same terms, as for `N=c1c2c(-c3ccccc3)c(-c3ccccc3)n(CCc3ccccc3)c2ncn1CC1CCOC1` (centres unmarked), the figure is 9.2 µM; as for `N=c1c2c(-c3ccccc3)c(-c3ccccc3)n(Cc3ccccc3)c2ncn1C1CCN(Cc2ccccc2)CC1`, 29.1 µM; as for `COc1ccc(-c2c(-c3ccc(OC)cc3)n(Cc3ccccc3)c3ncn(CC4CCOCC4)c(=N)c23)cc1`, 20.6 µM. Still for that read-out and setting: the value for `Cc1ccc(-c2c(C(=O)CCl)n(CCCO)c3ncnc(N)c23)cc1` was 23.1 µM; that for `N=c1c2c(-c3ccccc3)c(-c3ccccc3)n(CCc3ccccc3)c2ncn1CC1CCCO1` (centres unmarked) was 23.1 µM. In the case of `N=c1c2c(-c3ccccc3)c(-c3ccccc3)n(Cc3ccccc3)c2ncn1[C@@H]1CCCC[C@H]1O`, in the test with LC3, the AC50 was determined as 3.26 µM. The same measure, in the same setting: the value for `N=c1c2c(-c3ccccc3)c(-c3ccccc3)n(Cc3ccccc3)c2ncn1C1CCC(O)CC1` (centres unmarked) was 2.91 µM; that for `N=c1c2c(-c3ccccc3)cn(Cc3ccccc3)c2ncn1C1CCC(O)CC1` (centres unmarked) was 16.4 µM. Same read-out and setting: the value for `COc1ccc(CCn2cnc3c(c(-c4ccccc4)c(-c4ccccc4)n3Cc3ccccc3)c2=N)cc1OC` was 23.1 µM. Same read-out and setting: the value for `N=c1c2c(-c3ccccc3)c(-c3ccccc3)n(CCc3ccccc3)c2ncn1[C@H](CO)Cc1ccccc1` was 20.6 µM; that for `N=c1c2c(-c3ccccc3)c(-c3ccccc3)n(Cc3ccccc3)c2ncn1Cc1ccc2c(c1)OCO2` was 16.4 µM; that for `N=c1c2c(-c3ccccc3)cn(Cc3ccccc3)c2ncn1[C@H](CO)Cc1ccccc1` was 25.9 µM.

`N=c1c2c(-c3ccccc3)c(-c3ccccc3)n(CCc3ccccc3)c2ncn1[C@@H]1CCCC[C@H]1O` came in with a half-maximal activity concentration (AC50) in the test with LC3 of 7.31 µM. For the compound `N=c1c2c(-c3ccccc3)c(-c3ccccc3)n(Cc3ccccc3)c2ncn1CCCCO`, the concentration at half-maximal activity (AC50) in the test on LC3 turned out to be 11.6 µM. Turning to `N=c1c2c(-c3ccccc3)c(-c3ccccc3)n(Cc3ccccc3)c2ncn1CCNc1ccncc1`, the activity in the test on LC3 was half-maximal at 20.6 µM (AC50). Still for that read-out and setting: the value for `N=c1c2c(-c3ccccc3)c(-c3ccccc3)n(CC3CCCCC3)c2ncn1[C@H]1CC[C@H](O)CC1` was 16.4 µM. The same measure, in the same setting: as for `COc1ccc(Cn2c(-c3ccccc3)c(-c3ccccc3)c3c(=N)n(CC(OC)OC)cnc32)cc1`, the figure is 16.4 µM; as for `COc1ccc(Cn2c(-c3ccccc3)c(-c3ccccc3)c3c(=N)n(CC4CCCO4)cnc32)cc1` (centres unmarked), 20.6 µM.

Take `COc1ccc(Cn2c(-c3ccccc3)c(-c3ccccc3)c3c(=N)n(CCCCCO)cnc32)cc1`: half-maximal activity in the test with LC3 (AC50) was put at 5.17 µM. The same measure, in the same setting: as for `N=c1c2c(-c3ccccc3)c(-c3ccccc3)n(CCc3ccccc3)c2ncn1CCO`, the figure is 4.61 µM; as for `N=c1c2c(-c3ccccc3)c(-c3ccccc3)n(CCc3ccccc3)c2ncn1CCC1CCC(O)CC1` (centres unmarked), 3.66 µM. Same read-out and setting: the value for `N=c1c2c(-c3ccccc3)c(-c3ccccc3)n(Cc3ccc(OC(F)(F)F)cc3)c2ncn1CCCO` was 9.2 µM; that for `COc1ccc(Cn2c(-c3ccccc3)c(-c3ccccc3)c3c(=N)n(N4CCOCC4)cnc32)cc1` was 20.6 µM; that for `N=c1c2c(-c3ccccc3)c(-c3ccccc3)n(Cc3ccccc3)c2ncn1CCCCCO` was 10.3 µM. Regarding `N=c1c2c(-c3ccccc3)c(-c3ccccc3)n(Cc3ccccc3)c2ncn1CCO`, the AC50 in the test on LC3 worked out at 5.8 µM. Same read-out and setting: as for `CN(C)CCCn1cnc2c(c(-c3ccccc3)c(-c3ccccc3)n2CCc2ccccc2)c1=N`, the figure is 32.6 µM; as for `COCCn1cnc2c(c(-c3ccccc3)c(-c3ccccc3)n2Cc2ccc(OC)cc2)c1=N`, 23.1 µM. Turning to `CNC(=O)c1ccccc1Oc1nc(Nc2cc(OC)c(OC)c(OC)c2)ncc1Br` [SBI-0206965, reference compound], in the test with Aβ42, the “Becn1 F121A-induced reduction in brain Aβ42 levels” value is “abolished the reduction”. In the test on LC3, `N=c1c2c(-c3ccccc3)cn(Cc3ccccc3)c2ncn1CCCN1CCN(c2ccccc2)CC1` showed an AC50 of 23.1 µM. The same measure, in the same setting: the value for `N=c1c2c(-c3ccccc3)cn(Cc3ccc(Br)cc3)c2ncn1CCCCO` was 25.9 µM. The same measure, in the same setting: as for `COC(=O)c1cccc(Cn2cnc3c(c(-c4ccccc4)c(-c4ccccc4)n3CCc3ccccc3)c2=N)c1`, the figure is 13 µM; as for `N=c1c2c(-c3ccccc3)c(-c3ccccc3)n(Cc3ccc(OC(F)(F)F)cc3)c2ncn1[C@H]1CC[C@H](O)CC1`, 2.59 µM.

In the test on LC3, `N=c1c2c(-c3ccccc3)c(-c3ccccc3)n(CCc3ccccc3)c2ncn1CCCO` showed a half-maximal activity concentration (AC50) of 4.61 µM. Same read-out and setting: the value for `N=c1c2c(-c3ccccc3)c(-c3ccccc3)n(Cc3ccc(OC(F)(F)F)cc3)c2ncn1CC1CCOCC1` was 9.2 µM. `N=c1c2c(-c3ccccc3)c(-c3ccccc3)n(CCc3ccccc3)c2ncn1CC1CCOCC1`: in the test on LC3, half-maximal activity (AC50) was put at 10.3 µM. Turning to `COc1ccc(Cn2c(-c3ccccc3)c(-c3ccccc3)c3c(=N)n([C@H]4CC[C@H](O)CC4)cnc32)cc1`, the AC50 in the test with LC3 was 1.64 µM. In the test on LC3, `N=c1c2c3c(n(CCc4ccccc4)c2ncn1C1CCOCC1)CCCC3` returned an AC50 of 7.31 µM.

In the case of `N=c1c2c(-c3ccccc3)c(-c3ccccc3)n(CC3CCCCC3)c2ncn1C1CCOCC1`, the concentration at half-maximal activity (AC50) in the test with LC3 came to 10.3 µM. Still for that read-out and setting: the value for `COc1ccc(Cn2c(-c3ccccc3)c(-c3ccccc3)c3c(=N)n([C@H](C)[C@@H](O)c4ccccc4)cnc32)cc1` was 20.6 µM; that for `CO[C@H]1CC[C@H](n2cnc3c(c(-c4ccccc4)c(-c4ccccc4)n3CCc3ccccc3)c2=N)CC1` was 3.66 µM; that for `N=c1c2c(-c3ccccc3)c(-c3ccccc3)n(CCc3ccccc3)c2ncn1CCCCO` was 10.3 µM. Still for that read-out and setting: as for `N=c1c2c(-c3ccccc3)cn(Cc3ccccc3)c2ncn1[C@@H]1CCCC[C@H]1N`, the figure is 14.6 µM; as for `N=c1c2c(-c3ccccc3)c(-c3ccccc3)n(Cc3ccccc3)c2ncn1[C@H](CO)Cc1ccccc1`, 23.1 µM. On the same count and under the same terms, as for `N=c1c2c(-c3ccccc3)c(-c3ccccc3)n(Cc3ccccc3)c2ncn1[C@H]1CC[C@H](CO)CC1`, the figure is 9.2 µM; as for `COc1ccc(-c2c(-c3ccc(OC)cc3)n(Cc3ccccc3)c3ncn([C@H]4CC[C@H](OC)CC4)c(=N)c23)cc1`, 13 µM; as for `COc1ccc(Cn2c(-c3ccccc3)c(-c3ccccc3)c3c(=N)n(CCCO)cnc32)cc1`, 5.17 µM. For the compound `N=c1c2c(-c3ccccc3)c(-c3ccccc3)n(Cc3ccccc3)c2ncn1CC1CCOCC1`, the AC50 in the test on LC3 was determined as 10.3 µM.

In the test on LC3, `N=c1c2c(-c3ccccc3)c(-c3ccccc3)n(CCc3ccccc3)c2ncn1[C@H]1CC[C@H](O)CC1` gave a concentration at half-maximal activity (AC50) of 1.16 µM.

Consider `COc1ccc(Cn2c(-c3ccccc3)c(-c3ccccc3)c3c(=N)n(CCO)cnc32)cc1`, for which, in the test with LC3, half-maximal activity (AC50) was put at 2.59 µM. On the same count and under the same terms, the value for `N=c1c2c(-c3ccccc3)cn(Cc3ccc(Br)cc3)c2ncn1CCCN1CCN(c2ccccc2)CC1` was 16.4 µM; that for `N=c1c2c(-c3ccccc3)c(-c3ccccc3)n(CCc3ccccc3)c2ncn1CCCCCO` was 13 µM; that for `N=c1c2c(-c3ccccc3)c(-c3ccccc3)n(CC3CC3)c2ncn1C1CCOCC1` was 7.31 µM. The compound `N=c1c2c(-c3ccccc3)cn(Cc3ccccc3)c2ncn1C(CO)(CO)CO` showed an AC50 in the test on LC3 of 29.1 µM. On the same count and under the same terms, as for `CN(C)CCn1cnc2c(c(-c3ccccc3)c(-c3ccccc3)n2Cc2ccccc2)c1=N`, the figure is 10.3 µM; as for `N=c1c2c(-c3ccccc3)c(-c3ccccc3)n(CC3CC3)c2ncn1CCCO`, 10.3 µM; as for `CCOC(CCCn1cnc2c(c(-c3ccccc3)c(-c3ccccc3)n2Cc2ccccc2)c1=N)OCC`, 20.6 µM.
